According to patent publication US20090216158A1, “ULTRASOUND AND TISSUE REPAIR” (priority 2008, published 2009):

What was measured:
Rac1 = assay: GTPase activation assay: Rac1 effector pull-down with quantitative Western blotting; format: cell-based, mouse; details: 200 nM BIM, 30 min before and throughout stimulation; MEFs prespread on 50K
Method: (§1) For immunofluorescence, 13-mm diameter glass coverslips, placed into 6-well plates, were derivatized for 30 minutes with 1 mM sulpho-m-maleimidobenzoyl-N-hydrosuccinimide ester (Perbio). For spreading on mab13 monoclonal antibody, coverslips were pre-coated with 10 μg/ml goat anti-Rat IgG FC fragment (Jackson, Stratech Scientific). For biochemical assays, 6-well tissue culture-treated plastic plates (Corning BV) were coated directly with ligand. Coverslips or dishes were coated for 2 hours at room temperature with 10 μg/ml 50K, H/0, PLL or mab13 in Dulbecco's PBS containing calcium and magnesium (Lonza), and blocked with 10 mg/ml heat-denatured BSA for 30 minutes at room temperature (Humphries et al., 1986). Equivalent ligand-coating between glass and plastic was tested by ELISA using the anti-fibronectin mAb 333 (Bass et al., 2007a). To prevent de novo synthesis of ECM and other syndecan-4 ligands, cells were treated with 25 μg/ml cycloheximide (Sigma) for 2 hours prior to detachment (Couchman et al., 1983) and were then detached with 0.5 mg/ml trypsin. […] Images were compiled and analyzed using ImageJ software. The total area of adhesion complexes per cell was calculated by recording the area of fluorescence intensity above an empirically determined threshold, following rolling ball background subtraction. […]

MEFs = assay: Adhesion complex (focal adhesion) formation assay, vinculin/actin immunofluorescence; format: cell-based, mouse; details: 200 nM BIM; MEFs prespread on 50K
Method: as §1

human β1 integrin = molecular target: T1, human β1 integrin (Homo sapiens, UniProt P05556); assay: Flow cytometry of integrin activity with 12G10 antibody on K562 cells; format: cell-based; details: 1 mM Mn^2+ rather than 1 mM Ca^2+, 0.5 mM Mg^2+
T1 construct: endogenous in cells; host or cells: K562 human lymphocytes
Method: For analysis of integrin activity by flow cytometry, K562 suspension cells were stimulated with ultrasound for 20 minutes, followed by centrifugation and re-suspension in ice cold media. Cells were stained with primary antibody (12G10), diluted to 10 μg/ml in Dulbecco's PBS containing calcium and magnesium (Lonza), 0.02% (w/v) sodium azide on ice for 1 hour. The cells were washed with PBS, 1% (v/v) fetal bovine serum, followed by 10 μg/ml secondary antibody diluted in PBS, 10% (v/v) fetal bovine serum for 30 minutes. For manganese stimulation all antibodies and wash buffers were supplemented with 1 mM MnCl2. Cells were then fixed with 2% (w/v) paraformaldehyde, and analysed on a Dako Cyan flow cytometer, using an excitation wavelength of 488 nm. A 530/30 nm bandpass filter was used to detect the emissions.

staining of K562 lymphocytes with 12G10 (β1 integrin activation epitope) (human β1 integrin) | Compound | effect on ultrasound-induced Rac1 activation (Rac1) | effect on focal adhesion formation in response to H/0 (MEFs)
 | CN(C)CCCn1cc(C2=C(c3c[nH]c4ccccc34)C(=O)NC2=O)c2ccccc21 [BIM, bisindolylmaleimide I] | did not prevent ultrasound-induced Rac1 activation | blocked focal adhesion formation in response to H/0
enhanced | [Cl][Mn][Cl] [Mn^2+, MnCl2] |  | 
